Results taken from patent publication EP0515684A1, “INHIBITOR OF DENATURED LDL FORMATION” (Chugai Seiyaku Kabushiki Kaisha, priority 1990, dated 1991).

What was measured:
rabbit or human LDL = test: Electrophoretic mobility in agarose gel of LDL oxidised with Cu2+; format: biochemical; details: 10 µM of Cu²⁺, 37°C approximately 24 hours, expressed by regarding the mobility of LDL as 1.00 (Control 1.61)
Description: (§1) The biological properties of the compounds as shown hereinafter were examined by the following methods. • (1) The amount of thiobarbituric acid reactive substances: 5 µM of Cu²⁺ was added to rabbit LDL, prepared by the method reported by Havel et al., followed by heating. Then the antioxidative effect of each compound was examined by using the thiobarbituric acid reactive substances (TBARS) thus formed as the guidance. […] 0.5 ml of an n-butanol solution containing 0.2 µM of MCLA and 10 mM of linoleic acid was introduced into a vial for luminescence analysis and the luminescence due to autoxidation was measured in a thermostat at 37°C. […] To the obtained plasma, were added EDTA-NaN₃ (a 5% solution of pH 7.4) and a benzamidine solution (60 mg/ml) respectively in amounts of 0.8 ml and 0.5 ml per 100 ml of the plasma. Then rabbit or human LDL (1.019 < d < 1.063) was prepared by ultracentrifugation in accordance with the method of Havel et al.*. After performing the ultracentifugation again, the LDL was washed and concentrated. Then it was dialyzed against a 150 mM NaCl - 2 mM Na₂HPO₄ solution at 4°C and KBr was removed. The protein content was determined by Lowry method** and then the LDL was subjected to the subsequent procedure. (Measurement of electrophoretic mobility in agarose gel) 10 µM of Cu²⁺ and a specimen were added to an LDL-containing solution (3.00 µg protein/ml). After incubating at 37°C for approximately 24 hours, a portion (1 µl) thereof was applied onto an agarose gel film (Universal Film, manufactured by Corning Co.) and then subjected to electrophoresis (Agarose Gel Electrophoresis System for Lipoprotein, manufactured by Corning Co.). Thus the mobility was measured by staining lipids with Fat Red 7B. […] After 3 days, peritoneal macrophages were collected from the mouse and incubated in an RPMI 1640 medium containing 10% of FBS. The macrophages were used in the • examination on the next day.

rabbit LDL = test: Amount of thiobarbituric acid reactive substances (TBARS) formed on Cu2+ oxidation of LDL; format: biochemical; details: 5 µM of Cu²⁺ added to rabbit LDL, followed by heating
Description: as §1

Compound | Mobility (rabbit or human LDL; Compound conc. 10 x 10⁻⁶ M) | Mobility (rabbit or human LDL; Compound conc. 100 x 10⁻⁶ M) | Formed TBARS (%) (rabbit LDL; Compound conc. 10^-5 M, 10 µM) | Formed TBARS (%) (rabbit LDL; Compound conc. 10^-6 M, 1 µM)
O=C(Nc1ccc(C(=O)c2ccccc2)cc1)c1ccc(O)c(O)c1 [Compound 194] | 1.00 |  |  | 
CC(C)=CCC/C(C)=C\CC/C(C)=C/Cn1cnc2c1C(=O)C(C)=C(C)C2=O [Compound 206, 5,6-dimethyl-1-[(2E,6Z)-3,7,11-trimethyldodeca-2,6,10-trienyl]-4,7-benzimidazoledione] |  | 1.00 |  | 
COc1cc(NCc2ccccc2)cc(OC)c1OC [Compound 1, N-benzyl-3,4,5-trimethoxyaniline] | 1.17 |  | 33 | 49
Oc1ccc(-c2onc3ccc(Cl)cc23)cc1O [Compound 205, 3-(3',4'-dihydroxyphenyl)-5-chlorobenzoiso-oxazole] | 1.00 |  |  | 
O=C(c1ccc(O)c(O)c1)N1CCN(C(c2ccccc2)c2ccccc2)CC1 [Compound 197] | 1.00 |  |  | 
C=CCN(Cc1ccco1)c1cc(OC)c(OC)c(OC)c1 [Compound 96] |  |  | 43 | 67
COc1cc(NC(CCc2ccccc2)C(C)C)cc(OC)c1OC (stereo not drawn) [Compound 83] |  |  | 15 | 28
COc1cc(NCc2ccc(C)c(C)c2)cc(OC)c1OC [Compound 10] |  |  | 9 | 25
COc1cc(NCc2ccccn2)cc(OC)c1OC [Compound 98] |  |  | 43 | 79
COc1cc(N(CCCc2ccccc2)Cc2c(F)c(F)c(F)c(F)c2F)cc(OC)c1OC [Compound 30] |  |  | 26 | 57
CCCC(Nc1cc(OC)c(OC)c(OC)c1)C1CCCCC1 (stereo not drawn) [Compound 106] |  |  | 8 | 16
C=CCC(Nc1cc(OC)c(OC)c(OC)c1)C1CCCCC1 (stereo not drawn) [Compound 107] |  |  | 7 | 20
COc1cc(NCc2ccc(OCCCCCCC(=O)O)cc2)cc(OC)c1OC [Compound 54] |  |  | 16 | 46
COc1cc(CNc2cc(OC)c(OC)c(OC)c2)cc(OC)c1OC [Compound 35] |  |  | 28 | 52
CC(C)=CCC/C(C)=C/CCC(C)Nc1ccc(-c2cc(C(C)(C)C)c(O)c(C(C)(C)C)c2)cc1 (stereo not drawn) [Compound 188, 4-[4'-[(trans-1,5,9-trimethyl-4,8-decadienyl)amino]phenyl]2,6-di-tert-butylphenol] | 1.15 |  |  | 
COc1cc(NC/C=C(\C)CCC=C(C)C)cc(OC)c1OC [Compound 118] | 1.17 |  | 37 | 56
COc1cc(NCCc2ccccc2)cc(OC)c1OC [Compound 69] |  |  | 18 | 36
COc1cc(NCc2c(F)c(F)c(F)c(F)c2F)cc(OC)c1OC [Compound 29] |  |  | 20 | 39
COC(=O)c1ccc(CNc2cc(OC)c(OC)c(OC)c2)cc1 [Compound 60] |  |  | 17 | 46
CC(C)(C)c1cc(CNCc2ccccc2)cc(C(C)(C)C)c1O [Compound 185, N-benzyl-3,5-di-tert-butyl-4-hydroxybenzylamine] | 1.15 |  |  | 
CCCCC(Nc1cc(OC)c(OC)c(OC)c1)C1CCCCC1 (stereo not drawn) [Compound 108] |  |  | 8 | 21
CCCCCCCCC(Nc1cc(OC)c(OC)c(OC)c1)c1ccccc1 (stereo not drawn) [Compound 79] |  |  | 19 | 46
COc1cc(NC2CCCC3CCCCC32)cc(OC)c1OC (stereo not drawn) [Compound 109] |  |  | 10 | 20
